Laboratory results as given in patent US10845369B2, “Sampling devices and methods of use” (3M INNOVATIVE PROPERTIES COMPANY, priority 2008, dated 2020).
One block for each compound: values may come before it.

Legend:
luciferase enzyme = experiment: ATP detection activity test in CLEAN-TRACE devices (compatibility with luciferase enzyme); format: biochemical
Source text: The swabs were removed from the CLEAN-TRACE devices and replaced with dry, sterile Dacron swabs. One-third of the replacement swabs were dipped in solution I (see Table 1) for 20 seconds, tapped on the edge of a sterilin container 5 times (to remove excess swabbing solution), and the CLEAN-TRACE tube was reassembled with the moistened swab. One-third of the remaining replacement swabs were similarly moistened with solution II (Table 1) containing 2% (w/v) 1,2-propanediol and reassembled in the tubes. The remaining one-third were similarly moistened with solution II (Table 1) containing 5% (w/v) 1,2-propanediol and reassembled in the tubes. The reassembled devices were sealed in pouches containing 10 devices per pouch and stored at 4 degrees Celsius for 24 hours.
An ATP stock solution was prepared by reconstituting freeze-dried ATP with 500 microliters of autoclaved R.O. water to a working strength of […]. A 10-microliter aliquot of the ATP working solution was pipetted onto the middle of the bud of the test devices prepared for this Example (see above).
Individual devices were activated by plunging the handle of the swab into the test devices, thereby breaking the barrier and exposing the swab bud to the reagent solution containing luciferin. The tubes were then shaken for 20 seconds at speed 7 on the wrist action shaker (Stuart Scientific, Staffordshire, England) and the device was read device in a UNI-LITE luminometer (3M Healthcare, Bridgend, U.K.). Twenty replicate swabs were tested at each time point for each swab solution. Background readings (negative controls) were run at each time point by activating devices, containing one of the Solutions (I, IIa, or IIb), which was not spiked with the ATP solution. Ten devices were used for each negative control condition at each time point.
(§1) Swabs were prepared as described in Example 1. The swabs were tested for moisture retention as described in Example 1, for compatibility with luciferase enzyme as described in Example 3, and for perdurable detectable residue as described in Example 4. In these experiments, the swab effectiveness parameter was not recorded. All concentrations are listed as percent weight/volume. Solution I-moistened swabs were used as controls for all comparisons. Inhibition of luciferase activity was scored as significant when the measurement from the test swab was <90% of the activity observed with the control swabs. The inhibition was scored as very significant when the measurement from the test swab was <50% of the activity observed with the control swabs.

[1] = Moisture retention by premoistened swab devices during extended storage; format: physicochemical
Source text: Rapid Cleanliness Test swab sampling devices, sold under the trade name CLEAN-TRACE, were obtained from 3M Health Care (Bridgend, UK). Sterile Dacron swabs were obtained from Puritan Medical Products Company (Guilford, Me.). Foil pouches (160 mm (w)×270 mm (1) heat-sealable PET/foil/LDPE laminate pouches) were obtained from Westfield Medical Ltd. (Bath, UK). The analytical balance (model GR-300) was obtained from A&D Mercury Pty., (Thebarton, South Australia)
The swabs were removed from the CLEAN-TRACE devices and replaced with dry, sterile Dacron swabs. Half of the replacement swabs were dipped in solution I (see Table 1) for 20 seconds, tapped on the edge of a sterilin container 5 times (to remove excess swabbing solution), and the swabs were weighed before each CLEAN-TRACE tube was reassembled with a moistened swab. The remaining replacement swabs were similarly moistened with solution II (Table 1), weighed, and reassembled in the tubes.
The initial weight (T0) of each moistened swab was recorded. The reassembled tubes were placed into individual plastic pouches, which were heat-sealed. Care was taken to minimize the amount of air sealed in each pouch. The pouches were divided into two groups. One group was placed into a refrigerator which was held at a temperature of 4±3 degrees Celsius. The other group was placed into a chamber which was held at 25±1 degree Celsius. Sets of ten replicate tubes were removed from each chamber at each specified time point, the tubes were removed from the pouch and weighed, and the weights were recorded.
as §1

[2] = 1% w/v in Solution II, vs Solution I control
[3] = 5% w/v, vs Solution I control swabs
[4] = 5% w/v in Solution II, vs Solution I control

Structure (SMILES): CC(O)CO (centres unmarked) [Propylene glycol (1,2-propanediol), 1,2-propanediol]
Compatibility with luciferase enzyme (luciferase enzyme; 1, 2, 3, 4% tested): No inhibition | Compatibility with luciferase enzyme (luciferase enzyme; 5, 6, 8% tested): No inhibition | Moisture retention [1, 2]: No significant improvement | Moisture retention ([1]; ≥5% (5, 6, 8% tested)): Significant improvement ≥5% | Moisture retention ([1]; ≥5% (10. 20, 25, 50% tested)): Significant improvement ≥5%

Structure (SMILES): CC(=O)NCCO [Incromectant (N-Acetylethanolamine), N-Acetylethanolamine]
Compatibility with luciferase enzyme (luciferase enzyme; [3]): Some inhibition at 5% | Moisture retention [1, 4]: 5% solution was comparable to PG

Structure (SMILES): CC(O)C(=O)[O-].[Na+] (centres unmarked) [Sodium lactate]
Compatibility with luciferase enzyme (luciferase enzyme; [3]): Significant inhibition | Moisture retention ([1]; 5 or 10% soln.): No significant improvement with 5 or 10%

Continued, in another order:

Compatibility with luciferase enzyme (luciferase enzyme; 1% w/v, vs Solution I control swabs): No inhibition | Compatibility with luciferase enzyme (luciferase enzyme; [3]): No inhibition | Moisture retention [1, 2]: No significant improvement with 1%. | Moisture retention [1, 4]: Slight improvement with 5%. | Moisture retention ([1]; ≥10% (10, 20, 30, 40, 50, 100% tested)): Significant improvement with ≥10%
Structure (SMILES): OC[C@@H](O)[C@@H](O)[C@H](O)[C@@H](O)CO [Sorbitol]

Compatibility with luciferase enzyme (luciferase enzyme; up to 5% (1, 5% tested)): No inhibition up to 5%
Structure (SMILES): OCC(O)CO [Glycerol]
Moisture retention ([1]; 1, 5% tested): Comparable to sorbitol and propylene glycol | Moisture retention ([1]; 10, 20, 50% tested): Comparable to sorbitol and propylene glycol
